# Test system: NCI-H226 (lung cancer cell line)
# Assay: In vitro cytotoxicity by MTT assay, NCI-H226
# Format: cell-based
# Conditions: Homo sapiens, NCI-H226, 0.005 μM, 72 h, read-out: % Cytotoxicity (100 − % cell survival) of NCI-H226 cell line
# Outline: (§1)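 First, trypsinized cells went into wells at roughly 10,000 per well for 24 h. Next, medium was replaced with test compounds for 72 h at 37 °C. Finally, MTT was added for 4 h and the propanol-solubilized formazan read at 490 nm.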
row,Compound,cytotoxicity at 0.005 µM [%]
1,"O=C(NS(=O)(=O)c1nnc(N=Cc2ccccc2O)s1)c1ccccc1 [Compound 9f, N-({5-[(2-Hydroxybenzylidene)amino]-1,3,4-thiadiazol-2-yl}sulfonyl)benzamide]",30.3

# Same assay, conditions: Homo sapiens, NCI-H226, 0.045 μM, 72 h, read-out: % Cytotoxicity (100 − % cell survival) of NCI-H226 cell line
row,Compound,cytotoxicity at 0.045 µM [%]
1,"O=C(NS(=O)(=O)c1nnc(N=Cc2ccccc2O)s1)c1ccccc1 [Compound 9f, N-({5-[(2-Hydroxybenzylidene)amino]-1,3,4-thiadiazol-2-yl}sulfonyl)benzamide]",32.4

# Same assay, conditions: Homo sapiens, NCI-H226, 0.13 μM, 72 h, read-out: % Cytotoxicity (100 − % cell survival) of NCI-H226 cell line
row,Compound,cytotoxicity at 0.13 µM [%]
1,"O=C(NS(=O)(=O)c1nnc(N=Cc2ccccc2O)s1)c1ccccc1 [Compound 9f, N-({5-[(2-Hydroxybenzylidene)amino]-1,3,4-thiadiazol-2-yl}sulfonyl)benzamide]",33.4

# Same assay, conditions: Homo sapiens, NCI-H226, 0.41 μM, 72 h, read-out: % Cytotoxicity (100 − % cell survival) of NCI-H226 cell line
row,Compound,cytotoxicity at 0.41 µM [%]
1,"O=C(NS(=O)(=O)c1nnc(N=Cc2ccccc2O)s1)c1ccccc1 [Compound 9f, N-({5-[(2-Hydroxybenzylidene)amino]-1,3,4-thiadiazol-2-yl}sulfonyl)benzamide]",35

# Same assay, conditions: Homo sapiens, NCI-H226, 1.23 μM, 72 h, read-out: % Cytotoxicity (100 − % cell survival) of NCI-H226 cell line
row,Compound,cytotoxicity at 1.23 µM [%]
1,"O=C(NS(=O)(=O)c1nnc(N=Cc2ccccc2O)s1)c1ccccc1 [Compound 9f, N-({5-[(2-Hydroxybenzylidene)amino]-1,3,4-thiadiazol-2-yl}sulfonyl)benzamide]",35.7

# Same assay, conditions: Homo sapiens, NCI-H226, 3.7 μM, 72 h, read-out: % Cytotoxicity (100 − % cell survival) of NCI-H226 cell line
row,Compound,cytotoxicity at 3.7 µM [%]
1,"O=C(NS(=O)(=O)c1nnc(N=Cc2ccccc2O)s1)c1ccccc1 [Compound 9f, N-({5-[(2-Hydroxybenzylidene)amino]-1,3,4-thiadiazol-2-yl}sulfonyl)benzamide]",36.9

# Same assay, conditions: Homo sapiens, NCI-H226, 11.11 μM, 72 h, read-out: % Cytotoxicity (100 − % cell survival) of NCI-H226 cell line
row,Compound,cytotoxicity at 11.11 µM [%]
1,"O=C(NS(=O)(=O)c1nnc(N=Cc2ccccc2O)s1)c1ccccc1 [Compound 9f, N-({5-[(2-Hydroxybenzylidene)amino]-1,3,4-thiadiazol-2-yl}sulfonyl)benzamide]",37.1

# Same assay, conditions: Homo sapiens, NCI-H226, 33.33 μM, 72 h, read-out: % Cytotoxicity (100 − % cell survival) of NCI-H226 cell line
row,Compound,cytotoxicity at 33.33 µM [%]
1,"O=C(NS(=O)(=O)c1nnc(N=Cc2ccccc2O)s1)c1ccccc1 [Compound 9f, N-({5-[(2-Hydroxybenzylidene)amino]-1,3,4-thiadiazol-2-yl}sulfonyl)benzamide]",38.7

# Same assay, conditions: Homo sapiens, NCI-H226, 100 μM, 72 h, read-out: % Cytotoxicity (100 − % cell survival) of NCI-H226 cell line
row,Compound,cytotoxicity at 100 µM [%]
1,"O=C(NS(=O)(=O)c1nnc(N=Cc2ccccc2O)s1)c1ccccc1 [Compound 9f, N-({5-[(2-Hydroxybenzylidene)amino]-1,3,4-thiadiazol-2-yl}sulfonyl)benzamide]",40.4

# Test system: not listed separately
# Assay: In vitro cytotoxicity by MTT assay, NCI-H226
# Format: cell-based
# Conditions: human, NCI-H226 lung cancer cells, 0.015 μM, read-out: % Cytotoxicity (100 − % cell survival) of NCI-H226 cell line
# Outline: as §1
row,Compound,"cytotoxicity at 72 h, 0.015 µM [%]"
1,"O=C(NS(=O)(=O)c1nnc(N=Cc2ccccc2O)s1)c1ccccc1 [Compound 9f, N-({5-[(2-Hydroxybenzylidene)amino]-1,3,4-thiadiazol-2-yl}sulfonyl)benzamide]",31.2

# Test system: root meristem cells of Allium cepa
# Assay: In vitro antimitotic activity and cytogenetic analysis, Allium cepa meristem root model
# Format: cell-based
# Conditions: after 72 h of treatment; negative control 3.93 cm
# Outline: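 Onion roots (about 2–2.5 cm, five bulbs per sample) exposed to compound at 1 mg/mL at 22 ± 1 °C, with distilled water as negative and EMS (2 × 10^−2 M) as positive control. After 24 h, orcein-stained root tips were scored for mitotic index, chromatin aberrations and micronuclei per 1,000 cells. Root length at 72 h served as the general toxicity index, expressed as percentage of controls.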
row,Compound,average root length [cm]
1,"O=C(NS(=O)(=O)c1nnc(N=Cc2ccccc2O)s1)c1ccccc1 [Compound 9f, N-({5-[(2-Hydroxybenzylidene)amino]-1,3,4-thiadiazol-2-yl}sulfonyl)benzamide]",1.06

# Same assay, conditions: compounds 1 mg/mL, PC (EMS) 2 × 10^−2 M
Aberrant cells (%) ± SEM [%],Chromosome breaks (%) ± SEM [%],Polar deviations (%) ± SEM [%],Stickiness (%) ± SEM [%],Compound,"MNC (‰) ± SEM (micronuclei per 1,000 cells)"
33.41 ± 9.47,1.47 ± 0.13,7.33 ± 2.52,21.96 ± 7.22,"O=C(NS(=O)(=O)c1nnc(N=Cc2ccccc2O)s1)c1ccccc1 [Compound 9f, N-({5-[(2-Hydroxybenzylidene)amino]-1,3,4-thiadiazol-2-yl}sulfonyl)benzamide]",0.39 ± 0.20 ‰

# Test system: not listed separately
# Assay: Superoxide anion radical scavenging (NBT/NADH/PMS)
# Format: biochemical
# Conditions: Conc. ± SD; standard catechin; read-out: IC50 inhibitory concentration, Superoxide anion
# Protocol: Measurement of superoxide anion scavenging activity of the synthesized compound was taken based on the method described by Nishimiki et al. ([1972]) and slightly modified. […] The reaction mixture was incubated at 25 °C for 5 min, and the absorbance at 560 nm was measured against blank samples. Catechin was used as reference compound. All the experiments were performed in triplicate, and the results were averaged. The percentage of inhibition was determined by comparing the results of control and test samples. The IC50 (nM/mL) value are depicted in Table 1.
row,IC50 [µM],Compound
1,36.7 ± 14.4,"O=C(NS(=O)(=O)c1nnc(N=Cc2ccccc2O)s1)c1ccccc1 [Compound 9f, N-({5-[(2-Hydroxybenzylidene)amino]-1,3,4-thiadiazol-2-yl}sulfonyl)benzamide]"

# Test system: not given
# Assay: not given
# Conditions: not given
row,melting point [°C],Compound
1,220 to 222,"O=C(NS(=O)(=O)c1nnc(N=Cc2ccccc2O)s1)c1ccccc1 [Compound 9f, N-({5-[(2-Hydroxybenzylidene)amino]-1,3,4-thiadiazol-2-yl}sulfonyl)benzamide]"

# Test system: not listed separately
# Assay: In vitro cytotoxicity by MTT assay, HEK 293
# Format: cell-based, human
# Conditions: human, HEK 293 cells, 0.005 μM, read-out: % cytotoxicity (100 − % cell survival) of HEK 293 cell line
# Outline: as §1
row,Compound,"cytotoxicity at 72 h, 0.005 µM [%]"
1,"O=C(NS(=O)(=O)c1nnc(N=Cc2ccccc2O)s1)c1ccccc1 [Compound 9f, N-({5-[(2-Hydroxybenzylidene)amino]-1,3,4-thiadiazol-2-yl}sulfonyl)benzamide]",32.5

# Same assay, conditions: human, HEK 293 cells, 0.015 μM, read-out: % cytotoxicity (100 − % cell survival) of HEK 293 cell line
row,Compound,"cytotoxicity at 72 h, 0.015 µM [%]"
1,"O=C(NS(=O)(=O)c1nnc(N=Cc2ccccc2O)s1)c1ccccc1 [Compound 9f, N-({5-[(2-Hydroxybenzylidene)amino]-1,3,4-thiadiazol-2-yl}sulfonyl)benzamide]",33.1

# Same assay, conditions: human, HEK 293 cells, 0.045 μM, read-out: % cytotoxicity (100 − % cell survival) of HEK 293 cell line
row,Compound,"cytotoxicity at 72 h, 0.045 µM [%]"
1,"O=C(NS(=O)(=O)c1nnc(N=Cc2ccccc2O)s1)c1ccccc1 [Compound 9f, N-({5-[(2-Hydroxybenzylidene)amino]-1,3,4-thiadiazol-2-yl}sulfonyl)benzamide]",34

# Same assay, conditions: human, HEK 293 cells, 0.13 μM, read-out: % cytotoxicity (100 − % cell survival) of HEK 293 cell line
row,Compound,"cytotoxicity at 72 h, 0.13 µM [%]"
1,"O=C(NS(=O)(=O)c1nnc(N=Cc2ccccc2O)s1)c1ccccc1 [Compound 9f, N-({5-[(2-Hydroxybenzylidene)amino]-1,3,4-thiadiazol-2-yl}sulfonyl)benzamide]",35.1

# Same assay, conditions: human, HEK 293 cells, 0.41 μM, read-out: % cytotoxicity (100 − % cell survival) of HEK 293 cell line
row,Compound,"cytotoxicity at 72 h, 0.41 µM [%]"
1,"O=C(NS(=O)(=O)c1nnc(N=Cc2ccccc2O)s1)c1ccccc1 [Compound 9f, N-({5-[(2-Hydroxybenzylidene)amino]-1,3,4-thiadiazol-2-yl}sulfonyl)benzamide]",36.4

# Same assay, conditions: human, HEK 293 cells, 1.23 μM, read-out: % cytotoxicity (100 − % cell survival) of HEK 293 cell line
row,Compound,"cytotoxicity at 72 h, 1.23 µM [%]"
1,"O=C(NS(=O)(=O)c1nnc(N=Cc2ccccc2O)s1)c1ccccc1 [Compound 9f, N-({5-[(2-Hydroxybenzylidene)amino]-1,3,4-thiadiazol-2-yl}sulfonyl)benzamide]",37.1

# Same assay, conditions: human, HEK 293 cells, 3.7 μM, read-out: % cytotoxicity (100 − % cell survival) of HEK 293 cell line
row,Compound,"cytotoxicity at 72 h, 3.7 µM [%]"
1,"O=C(NS(=O)(=O)c1nnc(N=Cc2ccccc2O)s1)c1ccccc1 [Compound 9f, N-({5-[(2-Hydroxybenzylidene)amino]-1,3,4-thiadiazol-2-yl}sulfonyl)benzamide]",37.4

# Same assay, conditions: human, HEK 293 cells, 11.11 μM, read-out: % cytotoxicity (100 − % cell survival) of HEK 293 cell line
row,Compound,"cytotoxicity at 72 h, 11.11 µM [%]"
1,"O=C(NS(=O)(=O)c1nnc(N=Cc2ccccc2O)s1)c1ccccc1 [Compound 9f, N-({5-[(2-Hydroxybenzylidene)amino]-1,3,4-thiadiazol-2-yl}sulfonyl)benzamide]",37.9

# Same assay, conditions: human, HEK 293 cells, 33.33 μM, read-out: % cytotoxicity (100 − % cell survival) of HEK 293 cell line
row,Compound,"cytotoxicity at 72 h, 33.33 µM [%]"
1,"O=C(NS(=O)(=O)c1nnc(N=Cc2ccccc2O)s1)c1ccccc1 [Compound 9f, N-({5-[(2-Hydroxybenzylidene)amino]-1,3,4-thiadiazol-2-yl}sulfonyl)benzamide]",39.8

# Same assay, conditions: human, HEK 293 cells, 100 μM, read-out: % cytotoxicity (100 − % cell survival) of HEK 293 cell line
row,Compound,"cytotoxicity at 72 h, 100 µM [%]"
1,"O=C(NS(=O)(=O)c1nnc(N=Cc2ccccc2O)s1)c1ccccc1 [Compound 9f, N-({5-[(2-Hydroxybenzylidene)amino]-1,3,4-thiadiazol-2-yl}sulfonyl)benzamide]",42.8
